Measured values as given in article PMC12686497, “Exploring neurokinin-1 receptor antagonism for depression with structurally differentiated inhibitors” (Experimental & Molecular Medicine, 2025).
pIC50: −log10 of the molar value.

Key:
[1] = target: T1, NK1R (hTACR1-HEK293 cells) (Homo sapiens, UniProt P25103); test: FLIPR calcium 6 assay, SP-induced intracellular calcium mobilization; format: cell-based; details: 1 nM SP
T1 construct: expressed in transfected cells; host or cells: HEK293
Method: The following day, the cells were loaded with the FLIPR calcium 6 dye mixed at 1:1 to medium with 2.5 mM probenecid. The assay plate was wrapped with aluminum foil and incubated for 2 h at 37 °C in a humidified CO2 incubator. Each concentration of chemicals was dissolved in 1× Hank’s Balanced Salt Solution (plus 20 mM HEPES buffer, pH 7.4) and added to the well. The plate was incubated for 30 min at 37 °C before measuring. The final concentration of dimethyl sulfoxide was 0.5% in each well. Then, 1 nM SP-induced intracellular calcium mobilization was examined by monitoring the fluorescence intensity (excitation at 485 nm, emission at 525 nm, cutoff filter set at 515 nm) using a Flex Station 3 multimode microplate reader. Changes in fluorescence signal after SP addition were normalized to its starting signal and denoted as F/F0.

[2] = test system: LPS-induced depressive-like behavior; test: Tail suspension test (TST) in LPS model; format: in vivo, C57BL/6 mice; details: 10 mg/kg i.p., vs LPS-treated group
Method: (§1) The ligands were dissolved at a dose of 10 mg/kg in the vehicle (10% dimethyl sulfoxide and 10% Kolliphor in 0.9% saline) and intraperitoneally injected into each animal in experimental groups.
(§2) To generate the lipopolysaccharide (LPS) model, 0.25 mg/kg of LPS from E. coli O26:B6 (Sigma, L3755) was dissolved in 0.9% saline and injected intraperitoneally. The control group was treated with 0.9% saline instead of LPS injection. The mice received injections of either vehicle, compound #1, compound #15 or Aprepitant (Tocris Bioscience) on day 1, 1 h before LPS injection and on day 2.
On day 4 after LPS administration, the tail suspension test (TST) was conducted. A four-chamber apparatus divided by nontransparent acrylic partitions was used, and the mice were suspended in each chamber by the tail. A video was recorded for 6 min, and the last 4 min were manually scored for immobility time.

[3] = test system: IL-1β, TNF-α and IL-6 mRNA; test: qRT-PCR of proinflammatory cytokine mRNA in frontal cortex and hippocampus, LPS model; format: in vivo, C57BL/6 mice; details: 10 mg/kg i.p., 4 h after LPS, vs LPS-treated group
Method: as §1, §2
Four hours after LPS injection, the frontal lobe and hippocampus were isolated from the animal brain and placed in TRIzol solution (Ambion). Total RNA sample (2 μg) was reverse-transcribed into cDNA using Moloney Murine Leukemia Virus reverse transcriptase (M-MLV RT; Promega) and oligo (dT) primer (Novagen). Quantitative reverse transcription polymerase chain reaction (qRT–PCR), which quantifies gene expression levels, was performed using 0.5 μg of the reverse-transcription generated cDNA and specific primer sets (Supplementary Table 3). PCR amplification with iQ SYBR Green Supermix was performed in triplicate using the CFX96 Touch-Time System (Bio-Rad). The final products of qRT–PCR were electrophoresed on 2% agarose gels and visualized with SafeView Nucleic Acid Stain (G108, Applied Biological Materials). Cycle threshold (Ct) values at which the fluorescent signal exceeded the background were determined by qRT–PCR, and expression values for each gene were normalized to expression values of GAPDH. Relative quantification to calculate fold change was performed using the comparative Ct method (ΔΔCt).

[4] = test system: SI-induced despair-like behavior; test: Forced swim test (FST) in social isolation (SI) stress model; format: in vivo, C57BL/6 mice; details: 10 mg/kg i.p. day 6 to 13
Method: as §1
To generate the social isolation (SI) stress model, the animals were single-caged for 14 days. From day 6 to 13, mice received injections of either vehicle or compound #15.
(§3) On day 21 in the RS model and day 12 in the SI model, the forced swim test (FST) was performed. During each trial, mice were placed in a test cylinder (diameter 15 cm, height 25 cm) filled with water regulated at 25 ± 1 °C, and a video was recorded for 6 min. Immobility time was manually scored during the last 4 min of each trial.

[5] = test system: RS-induced despair-like behavior; test: Forced swim test (FST) in restraint stress (RS) model; format: in vivo, C57BL/6 mice; details: 10 mg/kg i.p. day 11 to 20
Method: as §1
To induce depressive-like behaviors in mice, restraint stress (RS) was applied using 50-ml conical tubes with many holes for 20 days, 2 h per day. From day 11 to 20, mice received injections of either vehicle or compound #15.
as §3

T1 sequence (P25103 whole entry): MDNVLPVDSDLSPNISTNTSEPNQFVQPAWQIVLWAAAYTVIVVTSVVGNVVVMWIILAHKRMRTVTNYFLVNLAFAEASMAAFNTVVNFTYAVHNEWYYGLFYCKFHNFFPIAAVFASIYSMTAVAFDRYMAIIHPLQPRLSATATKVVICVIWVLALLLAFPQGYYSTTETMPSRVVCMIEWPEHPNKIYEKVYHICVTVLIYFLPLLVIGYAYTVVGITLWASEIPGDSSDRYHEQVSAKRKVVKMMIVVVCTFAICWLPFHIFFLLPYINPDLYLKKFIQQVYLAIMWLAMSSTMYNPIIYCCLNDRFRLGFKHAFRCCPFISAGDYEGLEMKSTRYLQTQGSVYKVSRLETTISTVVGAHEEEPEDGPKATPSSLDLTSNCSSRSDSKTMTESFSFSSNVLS

SMILES | NK1R antagonistic / inhibitory activity (in words) [1] | immobility time in TST [2] | IL-6 mRNA level ([3]; frontal cortex) | TNF-α mRNA level ([3]; frontal cortex) | IL-1β mRNA level ([3]; hippocampus) | IL-6 mRNA level ([3]; hippocampus) | TNF-α mRNA level ([3]; hippocampus) | other results
COc1ccc(-c2[nH]c3ccc(F)cc3c2CCC(=O)NC(C)c2ccc(-n3cncn3)cc2)cc1 (stereo not shown) [#1] |  | significant reduction in immobility time | significantly reduced | significantly reduced | significantly reduced | significantly reduced | significantly reduced | IC50 (in words) [1]: single-digit micromolar
Cc1ccc2[nH]c(-c3ccc(Br)cc3)c(CCC(=O)NC(c3ccc(C(C)C)cc3)C(C)C)c2c1 (stereo not shown) [#15] |  | significantly reduced immobility time |  |  |  |  |  | pIC50 [1]: 7.10; immobility time in FST [4]: notable reduction in immobility time; immobility time in FST [5]: notable reduction in immobility time
C[C@@H](O[C@H]1OCCN(Cc2n[nH]c(=O)[nH]2)[C@H]1c1ccc(F)cc1)c1cc(C(F)(F)F)cc(C(F)(F)F)c1 [Aprepitant, reference compound] |  | significant reduction in immobility time | significantly reduced | significantly reduced | significantly reduced | significantly reduced | significantly reduced | 

The next lines start with results.

NK1R antagonistic / inhibitory activity (in words) [1] | SMILES | immobility time in TST [2] | IL-6 mRNA level ([3]; frontal cortex) | TNF-α mRNA level ([3]; frontal cortex) | IL-1β mRNA level ([3]; hippocampus) | IL-6 mRNA level ([3]; hippocampus) | TNF-α mRNA level ([3]; hippocampus) | other results
weaker inhibitory effects | COc1ccc(C(C)=O)cc1CC(=O)N(C)Cc1cc(Br)ccc1OC [#2] |  |  |  |  |  |  | 
weaker inhibitory effects | Cc1cc(F)ccc1C1CCN(C(=O)NC2CCOC3(CCOC3)C2)CC1 (stereo not shown) [#3] |  |  |  |  |  |  | 
